Laboratory results taken from patent publication US7247438B1, “Methods of identifying agents which enhance caspase activity” (priority 1997, dated 2007).
“Also recorded” adds a separate entry of the source. Peptide text beside a SMILES is read from it. * marks the point of attachment. Cbz = O=C(OCc1ccccc1)*; CH2F = FC*

Key:
caspase-1 = target: T1, caspase-1 (Homo sapiens, UniProt P29466); conditions: caspase-1 versus caspase-3; cited from earlier work
T1 sequence (P29466 120-297 limits assumed): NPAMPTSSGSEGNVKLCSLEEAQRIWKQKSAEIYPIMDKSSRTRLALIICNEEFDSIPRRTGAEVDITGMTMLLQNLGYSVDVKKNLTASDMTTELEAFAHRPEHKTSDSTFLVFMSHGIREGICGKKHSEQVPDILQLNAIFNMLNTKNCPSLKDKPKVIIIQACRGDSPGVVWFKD
T1 sequence (P29466 317-404 limits assumed): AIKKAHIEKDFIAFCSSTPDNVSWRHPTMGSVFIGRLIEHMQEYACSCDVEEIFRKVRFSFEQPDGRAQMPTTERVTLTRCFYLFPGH

[1] = system: CD4+ CD8+ DP thymocytes in FTOC of C57BL/6 mice; assay: glucocorticoid (dexamethasone)-induced DP thymocyte death in FTOC, FACS analysis; assay type: cell-based, mouse
[2] = target: T2, recombinant Yama/caspase-3 (Homo sapiens, UniProt P42574); assay: Western blot: binding of biotinylated substrate to recombinant Yama; conditions: FIG. 2B; 15 minutes with 2 mM biotin-DEVDamk
T2 construct: made in house
T2 sequence (P42574 29-175 limits assumed): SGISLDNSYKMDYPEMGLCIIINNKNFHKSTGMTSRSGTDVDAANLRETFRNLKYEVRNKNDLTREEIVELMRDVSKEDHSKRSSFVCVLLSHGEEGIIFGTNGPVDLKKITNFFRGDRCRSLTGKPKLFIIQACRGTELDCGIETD
T2 sequence (P42574 176-277 limits assumed): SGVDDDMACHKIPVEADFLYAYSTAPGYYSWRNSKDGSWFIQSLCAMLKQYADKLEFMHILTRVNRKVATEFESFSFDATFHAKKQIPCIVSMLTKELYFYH

[3] = system: thymic caspase (~17 kD subunit); assay: Western blot of thymic lysates: binding of biotinylated substrate to activated thymic caspase and competition; parameters: species or system mouse; conditions: for blocking of biotin-DEVDamk binding to the antigen-activated caspase: pretreatment of thymic lysates with excess (100-fold molar, FIG. 2D) of inhibitor
[4] = target: T3, recombinant Mch2a (caspase-6) (Homo sapiens, UniProt P55212); assay: Western blot: binding of biotinylated substrate to recombinant Mch2a; conditions: FIG. 2B; 15 minutes with 2 mM biotin-DEVDamk
T3 construct: made in house
T3 sequence (P55212 24-179 limits assumed): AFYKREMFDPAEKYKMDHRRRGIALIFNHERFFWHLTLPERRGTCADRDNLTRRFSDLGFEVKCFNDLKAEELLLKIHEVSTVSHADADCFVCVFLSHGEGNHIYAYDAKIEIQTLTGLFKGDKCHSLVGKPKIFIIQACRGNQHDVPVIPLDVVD
T3 sequence (P55212 194-293 limits assumed): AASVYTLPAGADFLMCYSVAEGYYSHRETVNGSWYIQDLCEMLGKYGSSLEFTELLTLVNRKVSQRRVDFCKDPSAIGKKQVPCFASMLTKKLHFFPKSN

[5] = system: DP thymocytes in FTOC of N15 TCR tg RAG-2−/− H-2b mice; assay type: cell-based, mouse; conditions: for effect on antigen (VSV8)-induced depletion of DP thymocytes: N15 FTOC, 2 hours with 100 μM inhibitor followed by 18 hours with 10 μM VSV8
[6] = system: activated thymic caspase in N15 tg RAG-2−/− H-2b FTOC; assay type: cell-based, mouse; conditions: for effect of pretreatment on VSV8-induced caspase activation (biotin-DEVDamk staining): FTOC, inhibitor pretreatment, then VSV8 4 hours
[7] = system: thymocytes in N15 tg RAG-2−/− H-2b FTOC; assay type: cell-based, mouse
[8] = system: CD4+ CD8+ DP thymocytes in FTOC of C57BL/6 mice; assay: anti-CD3ε mAb (2C11)-induced deletion of DP thymocytes in FTOC, FACS analysis; assay type: cell-based, mouse; parameters: effect on anti-CD3ε (2C11) mAb-induced deletion of DP thymocytes: dose or concentration left out as unconfirmed
[9] = system: Rat thymocytes in suspension; conditions: cited from earlier work
[10] = system: Drosophila Schneider cells; conditions: added to Drosophila Schneider cells; cited from earlier work
[11] = system: thymocytes in non-tg RAG-2−/− FTOC; assay type: cell-based, mouse
[12] = system: activated thymic caspase in adult N15 tg RAG-2−/− H-2b mice; conditions: mouse, in vivo
thymic caspase = assay: caspase activation in thymic lysates of adult mice after tail vein peptide injection (Western blot); conditions: mouse, in vivo

CC(=O)N[C@@H](Cc1ccc(O)cc1)C(=O)N[C@H](C(=O)N[C@@H](C)C(=O)N[C@H](C=O)CC(=O)O)C(C)C [Ac-YVAD-CHO]
fold lower concentration to inhibit caspase-1 than required to inhibit caspase-3 (caspase-1): ~10,000 fold

C[C@@H]1C[C@H]2[C@@H]3CCC4=CC(=O)C=C[C@]4(C)[C@@]3(F)[C@@H](O)C[C@]2(C)[C@@]1(O)C(=O)CO [Dexamethasone]
percentage of DP thymocytes ([1]; FTOC, control 74%): 19%

Cc1cccc(C)c1C(=O)OCC(=O)C(CC(=O)O)NC(=O)[C@@H](NC(=O)[C@H](CCC(=O)O)NC(=O)[C@H](CC(=O)O)NC(=O)CCCC[C@@H]1SC[C@@H]2NC(=O)N[C@@H]21)C(C)C (some centres unmarked) [biotin-DEVDamk, N-(Biotinylaspartylglutamylvalinyl)aspartic acid [(2,6-Dimethylbenzoyl)oxy]methyl Ketone]
binding of biotinylated substrate to recombinant Yama/caspase-3 [2]: bind
detection of / affinity for the activated thymic caspase by biotinylated substrate [3]: highest affinity
binding of biotinylated substrate to recombinant Mch2a (caspase-6) [4]: bind

COC(=O)C[C@H](NC(=O)[C@H](C)NC(=O)[C@@H](NC(=O)OCc1ccccc1)C(C)C)C(=O)CF [zVADfmk, N-benzyloxycarbonyl-Val-Ala-Asp-fluoromethylketone, b-methyl ester] (Cbz-Val-Ala-Asp(OMe)-CH2F)
effect on antigen (VSV8)-induced depletion of DP thymocytes [5]: completely blocks; also recorded: blocked; also recorded: blocks depletion
effect of pretreatment on VSV8-induced caspase activation (biotin-DEVDamk staining) [6]: blocked
blocking of biotin-DEVDamk binding to the antigen-activated caspase [3]: blocks binding; also recorded: prevents binding
number of TdT (TUNEL) positive apoptotic cells in histological sections (in words) [7]: reduces the number of TdT+ cells to that of the control; also recorded: blocked
effect on anti-CD3ε (2C11) mAb-induced deletion of DP thymocytes ([8]; 2-hour preincubation, harvested 18 hours later): inhibited; also recorded: blocked
effect of agent alone on percentage of DP thymocytes in FTOC ([8]; FTOC C57BL/6, no 2C11): does not alter
effect on glucocorticoid-induced death [9]: blocked
effect on dexamethasone (glucocorticoid)-induced death/deletion of DP thymocytes ([1]; 2-hour pretreatment with 100 μM zVADfmk): protects; also recorded: blocked
effect on apoptosis induced by expression of REAPER protein [10]: blocks the induction of apoptosis

COC(=O)CC(NC(=O)C(C)NC(=O)C(NC(=O)OCc1ccccc1)C(C)C)C(C)=O (centres unmarked) [zVADmk, N-(Z-Valinylalanyl)aspartic acid methyl ketone, b-methyl ester]
effect on antigen (VSV8)-induced depletion of DP thymocytes [5]: has no effect; also recorded: fails to block
effect of pretreatment on VSV8-induced caspase activation (biotin-DEVDamk staining) [6]: not
blocking of biotin-DEVDamk binding to the antigen-activated caspase [3]: does not block
number of TdT (TUNEL) positive apoptotic cells in histological sections (in words) [7]: levels of TdT positive cells similar to cultures treated with VSV8 alone; also recorded: no effect

FAPGNYPAL [SEV9]
depletion/death of DP thymocytes induced by peptide (in words) [5]: does not result in thymocyte death

RGYVYQGL [VSV8]
depletion/death of DP thymocytes induced by peptide (in words) [5]: massive depletion
percent CD4+ CD8+ DP thymocytes [5]: 21
biotin-DEVDamk staining (activation of thymic caspase) in FTOC sections [6]: widespread biotin-DEVDamk staining throughout the cortex
TdT positive cells mm2, non-tg [11]: 9 mm2
biotin-DEVDamk staining of thymic sections [12]: widespread biotin-DEVDamk staining
time to induction of an active caspase after tail vein injection (thymic caspase): ≤ 2 h
TdT positive cells mm2, N15tg #1 [7]: 429 mm2
TdT positive cells mm2, N15tg #2 [7]: 456 mm2
TdT positive cells mm2, N15tg #3 [7]: 441 mm2
number of TdT (TUNEL) positive apoptotic cells in histological sections (in words) [7]: obvious increase
